In patent US20240158446A1, “CYCLIC COMPOUND HAVING SELECTIVE INHIBITORY ACTION ON KRAS OVER HRAS AND NRAS” (CHUGAI SEIYAKU KABUSHIKI KAISHA, priority 2021, published 2024):
Read-outs that look alike come from different tables or passages of the source. *1 amine or outer side, *2 acyl side, *3 side chain or, on linkers, in order; H or OH if unused. Where a SMILES comes first, the peptide text is derived from it. Bridges are numbered along the chain shown (N, C = ends). [ ]: non-standard residue; d: D form. The star is where a group is joined. hPhe(3,5-F2-4-CF3) = N[C@@H](CCc1cc(F)c(C(F)(F)F)c(F)c1)C(=O)O; hPhe(3-Cl-4-CF3) = N[C@@H](CCc1ccc(C(F)(F)F)c(Cl)c1)C(=O)O; X36 = Cc1ccc(C[C@@H](C(=O)[*:2])N(CCC(F)(F)F)[*:1])cc1; NPrPhe(4-CF3) = CCCN[C@@H](Cc1ccc(C(F)(F)F)cc1)C(=O)O; NMeGly(cPent) = CN[C@H](C(=O)O)C1CCCC1; Hyp = O=C(O)[C@@H]1C[C@@H](O)CN1; NMeD = CN[C@@H](CC(=O)O)C(=O)O; NMeL = CN[C@@H](CC(C)C)C(=O)O; αMeV = CC(C)[C@](C)(N)C(=O)O; Morpholide = C1CN(*)CCO1; NMeA = CN[C@@H](C)C(=O)O; Pyrrolidide = C1CCN(*)C1; Ac5c = NC1(C(=O)O)CCCC1; Aze = O=C(O)[C@@H]1CCN1; NEtG = CCNCC(=O)O; Sar = CNCC(=O)O

Legend:
[1] = biological target: GDP-bound NRAS wild-type protein (Homo sapiens, UniProt P01111); assay: Binding to NRAS by surface plasmon resonance (SPR), Single Cycle Kinetics; settings: for NRAS/KRAS (ratio of KD value for NRAS to KD value for KRAS) / NRAS/KRAS (ratio of KD value with respect to NRAS to KD value with respect to KRAS): SPR, GDP-bound NRAS wild-type protein vs GDP-bound KRAS wild-type protein; for NRAS/KRAS (ratio of KD value with respect to GDP-bound NRAS wild-type protein to KD value with respect to KRAS): SPR KD ratio NRAS/KRAS, class symbols
Chain of GDP-bound NRAS wild-type protein (P01111 whole entry): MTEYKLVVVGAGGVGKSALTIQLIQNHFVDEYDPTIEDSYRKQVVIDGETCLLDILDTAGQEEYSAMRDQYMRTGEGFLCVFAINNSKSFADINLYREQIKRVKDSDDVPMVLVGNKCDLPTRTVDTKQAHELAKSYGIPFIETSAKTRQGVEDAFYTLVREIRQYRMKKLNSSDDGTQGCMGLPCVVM

[2] = biological target: GDP-bound KRAS wild-type protein (Homo sapiens, UniProt P01116); assay: Binding to KRAS by surface plasmon resonance (SPR), Single Cycle Kinetics; settings: GDP-bound KRAS wild-type protein, read-out: KRAS KD
Chain of GDP-bound KRAS wild-type protein (P01116 whole entry): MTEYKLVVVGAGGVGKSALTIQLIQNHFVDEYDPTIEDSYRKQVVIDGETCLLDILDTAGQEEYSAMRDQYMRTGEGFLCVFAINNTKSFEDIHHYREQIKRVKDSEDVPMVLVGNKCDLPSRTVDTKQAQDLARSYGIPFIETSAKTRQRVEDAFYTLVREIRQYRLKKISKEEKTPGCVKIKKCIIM

[3] = biological target: GDP-bound HRAS wild-type protein (Homo sapiens, UniProt P01112); assay: Binding to HRAS by surface plasmon resonance (SPR), Single Cycle Kinetics; settings: for HRAS/KRAS (ratio of KD value for HRAS to KD value for KRAS) / HRAS/KRAS (ratio of KD value with respect to HRAS to KD value with respect to KRAS): SPR, GDP-bound HRAS wild-type protein vs GDP-bound KRAS wild-type protein; for HRAS/KRAS (ratio of KD value with respect to GDP-bound HRAS wild-type protein to KD value with respect to KRAS): SPR KD ratio HRAS/KRAS, class symbols
Chain of GDP-bound HRAS wild-type protein (P01112 whole entry): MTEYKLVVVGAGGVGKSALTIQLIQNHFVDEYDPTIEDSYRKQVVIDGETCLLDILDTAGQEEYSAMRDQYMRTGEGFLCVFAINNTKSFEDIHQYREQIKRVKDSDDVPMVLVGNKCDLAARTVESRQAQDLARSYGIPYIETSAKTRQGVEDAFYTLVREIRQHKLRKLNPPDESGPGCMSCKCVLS

[4] = SPR Single Cycle Kinetics, 1:1 binding model

SMILES | NRAS/KRAS (ratio of KD value for NRAS to KD value for KRAS) [1] | Kd ([2]; SPR, Single Cycle Kinetics) | HRAS/KRAS (ratio of KD value for HRAS to KD value for KRAS) [3] | NRAS/KRAS (ratio of KD value with respect to NRAS to KD value with respect to KRAS) [1] | Kd [2, 4] | HRAS/KRAS (ratio of KD value with respect to HRAS to KD value with respect to KRAS) [3] | NRAS/KRAS (ratio of KD value with respect to GDP-bound NRAS wild-type protein to KD value with respect to KRAS) [1] | HRAS/KRAS (ratio of KD value with respect to GDP-bound HRAS wild-type protein to KD value with respect to KRAS) [3]
CCC[C@H]1C(=O)N[C@@H](C2CCCCC2)C(=O)N(C)CC(=O)N(C)[C@H]2C/C=C\CCN(C2=O)[C@@H](Cc2ccc(C(F)(F)F)cc2)C(=O)N(C)CC(=O)N[C@@H](CCc2ccc(C(F)(F)F)c(Cl)c2)C(=O)N2C[C@H](OCC)C[C@H]2C(=O)NC2(CC(C)(C)C2)C(=O)N(C)[C@@H]([C@@H](C)CC)C(=O)N(C)[C@H](C(=O)N(C)C)CC(=O)N1C [PP3015] | AA (a compound having 20 or more is denoted as AA) | 2.2 nM | A (a compound having 10 or more and less than 20 is denoted as A) | – | – | – | – | –
CCCN1C(=O)CN(C)C(=O)CN(CC)C(=O)[C@H]([C@@H](C)CC)NC(=O)[C@H](CC(C)C)N(C)C(=O)C[C@@H](C(=O)N(C)C)N(C)C(=O)[C@H](C2CCCC2)N(C)C(=O)C2(CCCC2)NC(=O)[C@@H]2C[C@@H](OCC)CN2C(=O)[C@H](CCc2ccc(C(F)(F)F)c(Cl)c2)NC(=O)CN(C)C(=O)[C@@H]1Cc1ccc(C(F)(F)F)cc1 [PP0427] ([NMeL]I[NEtG][Sar][NPrPhe(4-CF3)][Sar][hPhe(3-Cl-4-CF3)][Hyp](Et)[Ac5c][NMeGly(cPent)][NMeD]-NMe2; lactam N-11) | – | – | – | B (a compound having 3 or more and less than 10 is denoted as B) | 0.11 nM | C (A compound having a KD ratio of 0.1 or more and less than 3 is denoted as C) | – | –
CC[C@H](C)[C@@H]1NC(=O)[C@H](C)N(C)C(=O)C[C@@H](C(=O)N2CCOCC2)N(C)C(=O)[C@H](C2CCCC2)N(C)C(=O)C2(CCC2)NC(=O)[C@@H]2CC(F)(F)CN2C(=O)[C@H](CCc2cc(F)c(C(F)(F)F)c(F)c2)NC(=O)CN(C)C(=O)[C@H](Cc2ccc(C(F)(F)F)cc2)N2CCCC[C@@H](C2=O)N(C)C(=O)CN(C)C1=O [PP0582] | – | – | – | C (A compound having a KD ratio of 0.1 or more and less than 3 is denoted as C) | 0.02 nM | B (a compound having 3 or more and less than 10 is denoted as B) | – | –
C#CC[C@H]1C(=O)N[C@@H]([C@@H](C)CC)C(=O)N(C)CC(=O)N(C)[C@H]2C/C=C\CCN(C2=O)[C@@H](Cc2ccc(C(F)(F)F)cc2)C(=O)N(C)CC(=O)N[C@@H](CCc2ccc(Cl)c(Cl)c2)C(=O)N2C[C@H](OCC)C[C@H]2C(=O)NC2(CC(C)(C)C2)C(=O)N(C)[C@@H](C2CCCC2)C(=O)N(C)[C@H](C(=O)N(C)CC)CC(=O)N1C [PP2843] | – | – | – | – | 0.26 nM | – | A (a compound having 10 or more and less than 20 is denoted as A) | A (a compound having 10 or more and less than 20 is denoted as A)
CC[C@H](C)[C@@H]1NC(=O)[C@H](CC(C)C)N(C)C(=O)C[C@@H](C(=O)N2CCOCC2)N(C)C(=O)[C@H](C2CCCC2)N(C)C(=O)C2(CCCC2)NC(=O)[C@@H]2CCCN2C(=O)[C@H](CCc2ccc(C(F)(F)F)c(Cl)c2)NC(=O)CN(C)C(=O)[C@H](Cc2ccc(C)cc2)N(CCC(F)(F)F)C(=O)[C@@H]2CCN2C(=O)[C@H](C)N(C)C1=O [PP0091] ([NMeL]I[NMeA][Aze][X36][Sar][hPhe(3-Cl-4-CF3)]P[Ac5c][NMeGly(cPent)][NMeD]-Morpholide; lactam N-11) | C (A compound having a KD ratio of 0.1 or more and less than 3 is denoted as C) | – | B (a compound having 3 or more and less than 10 is denoted as B) | – | 0.23 nM | – | – | –
CCC[C@H]1C(=O)N[C@@H]([C@@H](C)CC)C(=O)N(C2CC2)CC(=O)N(C)[C@H]2C/C=C\CCN(C2=O)[C@@H](Cc2ccc(C(F)(F)F)cc2)C(=O)N(C)CC(=O)N[C@@H](CCc2ccc(Cl)c(Cl)c2)C(=O)N2C[C@H](OCC)C[C@H]2C(=O)NC2(CC(C)(C)C2)C(=O)N(C)[C@@H](CC2CC2)C(=O)N(C)[C@H](C(=O)N(C)C)CC(=O)N1C [PP2817] | – | – | – | – | 2.4 nM | – | A (a compound having 10 or more and less than 20 is denoted as A) | A (a compound having 10 or more and less than 20 is denoted as A)
CC[C@H](C)[C@@H]1NC(=O)[C@H](CC(C)C)N(C)C(=O)C[C@@H](C(=O)N2CCOCC2)N(C)C(=O)[C@H](C2CCCC2)N(C)C(=O)C2(CCC2)NC(=O)[C@@H]2CCCN2C(=O)[C@H](CCc2cc(F)c(C(F)(F)F)c(F)c2)NC(=O)CN(C)C(=O)[C@H](Cc2ccc(C(F)(F)F)cc2)N2CCCCC[C@@H](C2=O)N(C)C(=O)CN(C)C1=O [PP0497] | – | – | – | B (a compound having 3 or more and less than 10 is denoted as B) | 0.85 nM | B (a compound having 3 or more and less than 10 is denoted as B) | – | –
CCC[C@@H]1C[C@H]2C(=O)NC3(CC(C)(C)C3)C(=O)N(C)[C@@H](C3CCCC3)C(=O)N(C)[C@H](C(=O)N(C)C)CC(=O)N(C)[C@@H](COC)C(=O)N[C@@H]([C@@H](C)CC)C(=O)N(C)CC(=O)N(C)[C@H]3C/C=C\CCN(C3=O)[C@@H](Cc3ccc(C(F)(F)F)cc3)C(=O)N(C)CC(=O)N[C@@H](CCc3ccc(C(F)(F)F)c(Cl)c3)C(=O)N2C1 [PP2275] | A (a compound having 10 or more and less than 20 is denoted as A) | 0.36 nM | A (a compound having 10 or more and less than 20 is denoted as A) | – | – | – | – | –
CCC[C@H]1C(=O)N[C@@H]([C@@H](C)CC)C(=O)N(C)CC(=O)N(C)[C@H]2C/C=C\CCN(C2=O)[C@@H](CC2CCC(F)(F)CC2)C(=O)N(C)CC(=O)N[C@@H](CCc2ccc(C(F)(F)F)c(OC)c2)C(=O)N2C[C@H](OCC)C[C@H]2C(=O)N(C)C2(CCC2)C(=O)N(C)[C@@H](C(CC)CC)C(=O)N(C)[C@H](C(=O)N(C)C)CC(=O)N1C [PP2345] | A (a compound having 10 or more and less than 20 is denoted as A) | 1.7 nM | A (a compound having 10 or more and less than 20 is denoted as A) | – | – | – | – | –
CC[C@H](C)[C@@H]1NC(=O)[C@H](CC(C)C)N(C)C(=O)C[C@@H](C(=O)N(C)C)N(C)C(=O)[C@H](C2CCCC2)N(C)C(=O)C2(CCC2)NC(=O)[C@@H]2CC(F)(F)CN2C(=O)[C@H](CCc2ccc(C(F)(F)F)c(Cl)c2)NC(=O)CN(C)C(=O)[C@H](Cc2ccc(F)cc2)N2CCCCC[C@@H](C2=O)N(C)C(=O)CN(C)C1=O [PP0973] | B (a compound having 3 or more and less than 10 is denoted as B) | 0.085 nM | B (a compound having 3 or more and less than 10 is denoted as B) | – | – | – | – | –
CCO[C@@H]1C[C@H]2C(=O)NC3(CCCC3)C(=O)N(C)[C@@H](C3CCCC3)C(=O)N(C)[C@H](C(=O)N(C)C)CC(=O)N(C)[C@@H](CC(C)C)C(=O)N[C@@H]([C@@H](C)CC)C(=O)N(C)CC(=O)N(C)[C@H]3CCCCN(C3=O)[C@@H](Cc3ccc(C(F)(F)F)cc3)C(=O)N(C)CC(=O)N[C@@H](CCc3cc(F)c(C(F)(F)F)c(F)c3)C(=O)N2C1 [PP0579] | – | – | – | C (A compound having a KD ratio of 0.1 or more and less than 3 is denoted as C) | 0.017 nM | B (a compound having 3 or more and less than 10 is denoted as B) | – | –
CCCN1C(=O)[C@@H]2CCN2C(=O)[C@H](C)N(C)C(=O)[C@H]([C@@H](C)CC)NC(=O)[C@H](CC(C)C)N(C)C(=O)C[C@@H](C(=O)N2CCCC2)N(C)C(=O)[C@H](C2CCCC2)N(C)C(=O)C2(CCCC2)NC(=O)[C@@H]2CCCN2C(=O)[C@H](CCc2ccc(C(F)(F)F)c(Cl)c2)NC(=O)CN(C)C(=O)[C@@H]1Cc1ccc(C(F)(F)F)cc1 [PP0179] ([NMeL]I[NMeA][Aze][NPrPhe(4-CF3)][Sar][hPhe(3-Cl-4-CF3)]P[Ac5c][NMeGly(cPent)][NMeD]-Pyrrolidide; lactam N-11) | C (A compound having a KD ratio of 0.1 or more and less than 3 is denoted as C) | – | B (a compound having 3 or more and less than 10 is denoted as B) | – | 0.11 nM | – | – | –
CCCN1C(=O)CN(C)C(=O)CN(C)C(=O)[C@H]([C@@H](C)CC)NC(=O)[C@H](CC(C)C)N(C)C(=O)C[C@@H](C(=O)N(C)C)N(C)C(=O)[C@H](C2CCCC2)N(C)C(=O)[C@](C)(C(C)C)NC(=O)[C@@H]2CCCN2C(=O)[C@H](CCc2cc(F)c(C(F)(F)F)c(F)c2)NC(=O)CN(C)C(=O)[C@@H]1Cc1ccc(C(F)(F)F)cc1 [PP0735] ([NMeL]I[Sar][Sar][NPrPhe(4-CF3)][Sar][hPhe(3,5-F2-4-CF3)]P[αMeV][NMeGly(cPent)][NMeD]-NMe2; lactam N-11) | – | – | – | B (a compound having 3 or more and less than 10 is denoted as B) | 0.27 nM | C (A compound having a KD ratio of 0.1 or more and less than 3 is denoted as C) | – | –
